Assay results reported in US11826341B2, “Baicalein analogs for use in neuroprotection and regulation of immune reactivity” (THE HONG KONG POLYTECHNIC UNIVERSITY, priority 2021, dated 2023).
“Also recorded” adds a separate entry of the source.

Key:
[1] = system: human microglia HMC3 cell line; experiment: Cytokine array of culture media after LPS and ATP challenge; type: cell-based; conditions: 1 μM or 10 μM for 42 hours after 6 hours LPS and 30 mins ATP
Experimental: (§5) (A) Quantification the averaged pixel density of selected cytokines produced by human microglia cell line HMC-3 culture. […] Error bar=SEM. *P<0.05; **P<0.01. Scale bar=100 μM. One-way ANOVA. […] After 6 hours LPS stimulation and additional 30 mins ATP challenge, vehicle, 1 μM or 10 μM baicalein was delivered to the culture media for an additional 42 hours. The culture media from different groups was collected for the cytokine array, while the cells were lysed for qPCR to identify the mRNA level.

[2] = system: human microglia HMC3 cell line; experiment: qPCR of pro-inflammatory genes after LPS and ATP challenge; type: cell-based; conditions: 1 μM or 10 μM for 42 hours after LPS and ATP
Experimental: as §5

[3] = system: retinal microglia; experiment: qPCR of activated microglia markers and pro-inflammatory cytokines in retina after ischemia/reperfusion; type: in vivo, mice; conditions: 100 μM
Experimental: Quantifications of qPCR assay showing the relative expression of (B) activated microglia markers and (C) pro-inflammatory cytokines in normal mice, and mice at 1 wk and 4 wks post ischemia/reperfusion retina from vehicle or 100 μM Ba given group. Error bar-SEM. *P<0.05.

[4] = system: RGCs; experiment: RGC survival in vivo after retinal ischemia/reperfusion injury (Brn-3a whole-mount retina); design: species or system mice; conditions: 4 weeks after ischemia/reperfusion, injured control 2,314+/−383, uninjured 3,901+/−145
Experimental: (§1) (A) representative photomicrographs showing Brn-3a staining a whole-mounted retina from four weeks after ischemia injury in vehicle, 10 μM or 100 μM baicalein group; (B) bar graph quantifying the number of survived RGCs in 4 weeks post-injury retina from vehicle, 10 μM or 100 μM baicalein group; (C) bar graph the number of live primary RGC survival rate in vehicle, 1 μM baicalein group. Bar=20 μm. *P<0.05; **P<0.01 value was statistically analyzed by one-way ANOVA.
(§2) Example 1—Baicalein improves RGCs survival in vitro culture or after ischemia/reperfusion damages. To study the effect of baicalein on retinal neurons, we carried out in vitro RGC cultures and in vivo studies of RGCs survival in experimental models of retinal ischemia/reperfusion injury. RGC density dropped from 3,901+/−145 cells/mm^2 to 2,314+/−383 cells/mm^2 at 4 weeks following ischemia/reperfusion injury. […] Moreover, purified mouse RGCs were cultured with vehicle, 1 μM or 10 μM Baicalein for 48 hours.

[5] = system: ischemia/reperfusion mice; experiment: Optomotor response (OMR) after ischemia/reperfusion injury; type: in vivo
Experimental: (K) Graphs showing contrast sensitivity (CS) and (L) visual acuity (VA) of optomotor response (OMR) in mice received ischemia/reperfusion and intravitreal injections of vehicle, 10 μM or 100 μM baicalein. Error bar=SEM. *P<0.05; **P<0.01.

[6] = system: CD4+ T cells; experiment: Flow cytometry of CD4+ T cells in retina and superior cervical lymph nodes after ischemia/reperfusion; type: in vivo, mice; conditions: 100 μM
Experimental: (A) 1 wk representative flow images and (B) quantification of the CD4+ cell percentage in the retina at 1 wk and 4 wks timepoint. Flow cytometry quantification of frequencies of subsets of CD4+ T cells in the draining LNs of the eye taken from mice at 1 wk (C) and 4 wks (D) after acute ischemic injury in vehicle or 100 μM baicalein given group. Shown were percentages of CD4+ T cells that expressed IFN-γ, IL-17, IL-4, IL-10 or TGF-β among fresh-isolated total LN lymphocytes. […] Th1, Th2, Th17, and Treg cells, again were divided based on the expression profile of hallmark cytokines: IFN-γ (TH1), IL-4 (TH2), IL-10 (TH2), IL-17 (TH17), and TGF-β (Treg)^16.

[7] = system: purified mouse RGCs; experiment: Purified RGC culture survival; type: cell-based; conditions: 48 hours, vehicle 35.8+/−1.3%
Experimental: as §1, §2

[8] = system: HMC-3; experiment: Intracellular calcium after ATP stimulation; type: cell-based, human; conditions: 10 μM pretreatment 24 hrs; 50 μM ATP stimulation
Experimental: (A) Changes of [Ca^2+]i in cultured HMC-3 with pretreatment of vehicle or 10 μM baicalein for 24 hrs. […] (B) Quantification of [Ca^2]i levels in different treatment groups after stimulation (n=6 cultures/group, and 10-20 neurons were recorded from each group). […] To verify the effect of baicalein on the influence of microglia state, the measurement of intracellular calcium concentration [Ca2+]I was applied. After adding 50 μM ATP to microglial cells, the influx of [Ca2+]I was triggered immediately in naïve group.

[9] = system: ischemia/reperfusion mice; conditions: mouse, in vivo
Experimental: The results of electroretinogram (ERG) and optomotor response (OMR) measurements were used to determine the changes of visual functions after ischemia/reperfusion damages. For ERG measurement, positive scotopic threshold response (pSTR), scotopic a- and b-wave, M-cone and 10 Hz flicker amplitudes were obtained from the three experimental groups (i.e. vehicle, 10 μM and 100 μM baicalein) at baseline, 1 wk, 2 wks and 4 wks post-ischemia/reperfusion injury (FIGS. 2A, 2B, 2C, 2D, 2E, 2F, 2G, 2H, 2I and 2J). […] At the same time, the electrical signals from M-cone and 10 Hz-flicker stimulus were also captured (FIGS. 2F, 2G, 2H, 2I and 2J).

[10] = system: primary mouse brain microglia; experiment: PI3K and NFkB immunostaining in LPS and ATP challenged microglia; type: cell-based; conditions: 10 μM; LPS and ATP challenged mouse microglial cells
Experimental: (§3) FIG. 5 Baicalein suppresses PI3K and NFkB pathway in both primary mouse brain microglia and human microglia HMC3 cell line in vitro. (A) Representative bright field images of primary mouse brain microglia and images immunostained with DAPI (blue), p85 PI3K (red) and p65 NFkB (green) antibody in LPS and ATP plus vehicle or 10 μM baicalein delivered group respectively. Scale bar=40 μm (B) Representative human microglia images immunostained with DAPI (blue), p85 PI3K (red) and p65 NFkB (green) antibody in LPS and ATP plus vehicle or 10 μM baicalein delivered group respectively. Error bar=SEM. *P<0.05; **P<0.01. Scale bar=100 μm.
(§4) To further understand if the effects of suppressing microglia activation and cytokines release are related with NFkB and PI3K pathway, we examine the performance of baicalein in primary mouse microglia and human microglial cell line HMC-3.

[11] = system: human microglia HMC3 cell line; experiment: as above; type: cell-based; conditions: 10 μM; LPS and ATP challenged human microglial cells
Experimental: as §3, §4

[12] = 100 μM weekly intravitreal, 4 weeks after ischemia

Scotopic ERG a wave and b wave (bipolar cells) [9]: protective effects
SMILES: O=c1cc(-c2ccccc2)oc2cc(O)c(O)c(O)c12 [baicalein, 5,6,7-trihydroxyflavone]
release of pro-inflammatory factors (CCL2, Cxcl10, IL-1α, IL-10, TNFα, etc) [1]: largely draw the release of pro-inflammatory factors to the resting level
IL-6 expression level [2]: significant suppression
expression of IL-10 and TNFα ([2]; vs vehicle group): dramatically dropped
mRNA fold changes of IL-1β and TNFα ([2]; vs vehicle group): consistent anti-inflammation effects
mRNA levels of activated microglia markers Iba-1, YM-1 and Nox2 ([3]; retina 1- and 4-week post injury): relatively low mRNA levels
pro-inflammatory cytokines CCL2, IL-1α (qPCR) ([3]; retina, vs vehicle group): down-regulated
RGC density ([4]; 10 μM intravitreal injection day 1 after injury): 3,480+/−197 cells/mm^2
RGC density ([4]; 100 μM intravitreal injection day 1 after injury): 3,604+/−137 cells/mm^2
visual acuity ([5]; 10 μM intravitreal, after ischemia injury): improvement
contrast sensitivity [5, 12]: improved
visual acuity [5, 12]: improved
IFNγ (TH1) CD4+ T cells in superior cervical LNs ([6]; 1 and 4 weeks after ischemic injury): significantly inhibited
IL-10 (TH2) expression in superior cervical LNs ([6]; 4-week post-injury): lower than that of vehicle-treated
IL-4 (TH2) level in superior cervical LNs ([6]; 4-week time point): lower than vehicle group
number of infiltrated T cells in the retina ([6]; after ischemia/reperfusion injury): decrease
RGC survival rate ([7]; 1 μM): 42.0+/−1.2%
RGC survival rate ([7]; 10 μM): 41.1+/−1.9%
elevation of intracellular calcium [Ca2+]i [8]: delayed Ca^2+ influx with reduced magnitude; also recorded: suppressed effectively
PI3K and NFkB pathway activation [10]: effectively reduce
PI3K and NFkB pathway activation [11]: effectively reduce
